One may read the IC50 as the concentration that inhibits the measured activity by half.

The values that follow come from ChEMBL document CHEMBL1129525 (J Med Chem, 1996).

For assay [1], the system named is Toxoplasma gondii. As to the kind of experiment: Inhibition of Toxoplasma gondii cell growth. It counts as functional, organism-based.
Assay [2] addresses T1, Dihydrofolate reductase (Pneumocystis carinii, UniProt P16184).
T1 sequence (P16184 whole entry): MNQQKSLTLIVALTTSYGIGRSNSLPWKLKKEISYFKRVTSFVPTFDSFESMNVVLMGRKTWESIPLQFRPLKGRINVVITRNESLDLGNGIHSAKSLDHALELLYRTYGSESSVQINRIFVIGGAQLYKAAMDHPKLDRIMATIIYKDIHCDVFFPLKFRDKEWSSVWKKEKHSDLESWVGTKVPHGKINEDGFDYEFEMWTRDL
Description: Inhibitory activity against Pneumocystis carinii dihydrofolate reductase

In assay [3] the target is T2, Dihydrofolate reductase (Rattus norvegicus, UniProt Q920D2).
T2 sequence (Q920D2 whole entry): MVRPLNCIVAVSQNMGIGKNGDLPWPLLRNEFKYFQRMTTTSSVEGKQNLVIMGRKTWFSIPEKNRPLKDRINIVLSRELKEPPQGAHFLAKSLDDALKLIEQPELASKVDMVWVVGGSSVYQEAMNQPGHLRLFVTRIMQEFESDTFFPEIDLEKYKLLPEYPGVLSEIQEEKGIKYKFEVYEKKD
Description: Inhibitory activity against rat liver dihydrofolate reductase

In assay [4] the target is T3, Bifunctional dihydrofolate reductase-thymidylate synthase (Toxoplasma gondii, UniProt Q07422).
T3 sequence (Q07422 whole entry): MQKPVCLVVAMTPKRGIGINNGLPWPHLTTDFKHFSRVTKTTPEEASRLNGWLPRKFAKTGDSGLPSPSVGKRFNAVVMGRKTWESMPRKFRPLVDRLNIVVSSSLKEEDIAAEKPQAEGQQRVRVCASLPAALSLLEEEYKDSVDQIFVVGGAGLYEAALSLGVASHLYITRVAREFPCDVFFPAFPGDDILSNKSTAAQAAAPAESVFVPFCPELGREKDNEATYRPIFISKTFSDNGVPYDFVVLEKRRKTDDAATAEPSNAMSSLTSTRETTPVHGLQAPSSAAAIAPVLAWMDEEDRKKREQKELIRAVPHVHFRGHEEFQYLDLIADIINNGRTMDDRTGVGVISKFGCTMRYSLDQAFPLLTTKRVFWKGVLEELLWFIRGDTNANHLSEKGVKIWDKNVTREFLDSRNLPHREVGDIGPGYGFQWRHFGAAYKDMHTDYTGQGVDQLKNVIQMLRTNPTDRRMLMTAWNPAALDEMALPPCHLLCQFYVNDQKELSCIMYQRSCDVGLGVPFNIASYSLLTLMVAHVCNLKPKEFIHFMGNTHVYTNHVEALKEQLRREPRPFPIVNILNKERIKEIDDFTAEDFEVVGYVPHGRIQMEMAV
Description: Inhibitory activity against Toxoplasma gondii dihydrofolate reductase

Assay [5] deals with Toxoplasma gondii. As to the kind of experiment: Inhibitory activity against Toxoplasma gondii cell growth(ca denotes calculated value). It counts as functional, organism-based.

Turning to `COc1cc(OC)cc(N(C)Cc2cnc3nc(N)nc(N)c3c2C)c1`, the IC50 in the assay on Toxoplasma gondii [1] is 10 nM; against Dihydrofolate reductase [2] it was 50 nM; at Dihydrofolate reductase [3], 13 nM; in assay [4] it was 4 nM.

As to `Nc1nc(N)c2nc(CNc3ccc(Cl)cc3)cnc2n1`, the IC50 in the assay on Toxoplasma gondii [1] was 700 nM; against Dihydrofolate reductase [2], 1500 nM; at Dihydrofolate reductase [3], 300 nM; in assay [4] it was 590 nM.

For the molecule `Nc1nc(N)c2cc(CNc3cccc4ccccc34)ccc2n1`, the IC50 turned out to be 60 nM in the assay with Toxoplasma gondii [1], 210 nM against Dihydrofolate reductase [2], 55 nM on Dihydrofolate reductase [3] and 27 nM in assay [4].

As for `Cc1cc(Cl)ccc1NCc1ccc2nc(N)nc(N)c2c1`, the IC50 in the assay with Toxoplasma gondii [1] is 200 nM; against Dihydrofolate reductase [2], 330 nM; against Dihydrofolate reductase [3], 23 nM; in assay [4], 33 nM.

On to `COc1ccc(SCc2cnc3nc(N)nc(N)c3c2C)cc1OC`, for which the IC50 with Toxoplasma gondii [1] was found to be 5000 nM; against Dihydrofolate reductase [2], 150 nM; against Dihydrofolate reductase [3], 180 nM; in assay [4] it was 30 nM.

Consider `COc1ccc(SCc2cnc3nc(N)nc(N)c3n2)cc1OC`, for which the IC50 with Toxoplasma gondii [1] was determined as 5000 nM; against Dihydrofolate reductase [2], 58200 nM; on Dihydrofolate reductase [3], 36300 nM; in assay [4] it was 23200 nM.

Regarding `Cc1c(CCc2cccc3ccccc23)cnc2nc(N)nc(N)c12`, the IC50 was found to be 100 nM in the assay with Toxoplasma gondii [1], 64 nM against Dihydrofolate reductase [2], 135 nM against Dihydrofolate reductase [3] and 26 nM in assay [4].

For `Cc1ccc(C)c(NCc2cnc3nc(N)nc(N)c3c2C)c1`, the IC50 with Toxoplasma gondii [1] was 10 nM; on Dihydrofolate reductase [2] it was 30 nM; on Dihydrofolate reductase [3], 120 nM; in assay [4], 16 nM.

With `COc1cc(NCc2cnc3nc(N)nc(N)c3n2)cc(C(F)(F)F)c1`, the IC50 in the assay with Toxoplasma gondii [1] stood at 1000 nM; against Dihydrofolate reductase [2], 680 nM; at Dihydrofolate reductase [3], 1900 nM; in assay [4] it was 890 nM.

Consider `Nc1nc(N)c2cc(CNc3ccc(Cl)cc3)cnc2n1`, for which the concentration for half-maximal inhibition (IC50) in the assay with Toxoplasma gondii [1] came to 4000 nM; at Dihydrofolate reductase [2] it was 970 nM; against Dihydrofolate reductase [3], 720 nM; in assay [4], 300 nM.

As to `COc1ccc(C)c(NCc2cnc3nc(N)nc(N)c3n2)c1`, the IC50 in the assay with Toxoplasma gondii [1] is 1000 nM; at Dihydrofolate reductase [2], > 3000 nM; at Dihydrofolate reductase [3], > 3000 nM; in assay [4], 440 nM.

As for `COc1cc(NCc2cnc3nc(N)nc(N)c3c2C)cc(OC)c1`, the IC50 stood at 60 nM in the assay with Toxoplasma gondii [1], 49 nM at Dihydrofolate reductase [2], 31 nM against Dihydrofolate reductase [3] and 3.5 nM in assay [4].

For the molecule `Cc1c(CSc2cccc3ccccc23)cnc2nc(N)nc(N)c12`, the IC50 was found to be 40 nM in the assay with Toxoplasma gondii [1], 290 nM at Dihydrofolate reductase [2], 550 nM against Dihydrofolate reductase [3] and 30 nM in assay [4].

On to `COc1cccc(C)c1NCc1cnc2nc(N)nc(N)c2n1`, for which the 50% inhibitory concentration (IC50) in the assay on Toxoplasma gondii [1] turned out to be 5000 nM; against Dihydrofolate reductase [2], 15800 nM; at Dihydrofolate reductase [3], 5700 nM; in assay [4] it was 1850 nM.

`COc1ccc(C)c(NCc2cnc3nc(N)nc(N)c3c2C)c1`: the IC50 worked out at 30 nM with Toxoplasma gondii [1], 38 nM at Dihydrofolate reductase [2], 150 nM at Dihydrofolate reductase [3] and 23 nM in assay [4].

Consider `Nc1nc(N)c2nc(CSc3ccc(Cl)cc3)cnc2n1`, for which the IC50 with Toxoplasma gondii [1] was > 10000 nM; on Dihydrofolate reductase [2] it was 42100 nM; at Dihydrofolate reductase [3] it was 14300 nM; in assay [4], 16800 nM.

Take `CCOc1ccc(OCC)c(N(C)Cc2cnc3nc(N)nc(N)c3c2C)c1`: the IC50 in the assay on Toxoplasma gondii [1] stood at 60 nM; on Dihydrofolate reductase [2] it was 167 nM; against Dihydrofolate reductase [3], 530 nM; in assay [4], 29 nM.

As for `COc1cc(NCc2cnc3nc(N)nc(N)c3c2C)cc(C(F)(F)F)c1`, the IC50 in the assay with Toxoplasma gondii [1] amounted to 200 nM; at Dihydrofolate reductase [2], 20 nM; on Dihydrofolate reductase [3], 17 nM; in assay [4], 18 nM.

As to `Cc1c(CSc2cccc(Cl)c2)cnc2nc(N)nc(N)c12`, the IC50 came out at 150 nM with Toxoplasma gondii [1], 68 nM on Dihydrofolate reductase [2], 190 nM at Dihydrofolate reductase [3] and 90 nM in assay [4].

As for `COc1cccc(SCc2cnc3nc(N)nc(N)c3c2C)c1`, the IC50 in the assay with Toxoplasma gondii [1] was 200 nM; on Dihydrofolate reductase [2], 340 nM; at Dihydrofolate reductase [3] it was 600 nM; in assay [4], 110 nM.

For the molecule `CCOc1ccc(OCC)c(NCc2cnc3nc(N)nc(N)c3c2C)c1`, the IC50 came out at 60 nM in the assay on Toxoplasma gondii [1], 125 nM against Dihydrofolate reductase [2], 370 nM against Dihydrofolate reductase [3] and 22 nM in assay [4].

`COc1ccc(C)cc1NCc1cnc2nc(N)nc(N)c2c1C`: the IC50 with Toxoplasma gondii [1] turned out to be 50 nM; at Dihydrofolate reductase [2], 68 nM; at Dihydrofolate reductase [3] it was 160 nM; in assay [4], 15 nM.

Turning to `COc1ccc(OC)c(N(C)Cc2cnc3nc(N)nc(N)c3c2C)c1`, the IC50 with Toxoplasma gondii [1] turned out to be 200 nM; at Dihydrofolate reductase [2] it was 700 nM; against Dihydrofolate reductase [3], 460 nM; in assay [4], 28 nM.

With `COc1ccc(NCc2cnc3nc(N)nc(N)c3c2C)cc1OC`, the IC50 with Toxoplasma gondii [1] is 600 nM; at Dihydrofolate reductase [2], 51 nM; against Dihydrofolate reductase [3], 6.5 nM; in assay [4], 2.7 nM.

Turning to `COc1ccc(OC)c(CCc2cnc3nc(N)nc(N)c3n2)c1`, the IC50 was 5000 nM in the assay with Toxoplasma gondii [1], 11100 nM against Dihydrofolate reductase [2], 23200 nM against Dihydrofolate reductase [3] and 5400 nM in assay [4].

For the molecule `Nc1nc(N)c2nc(CSc3cccc(Cl)c3)cnc2n1`, the IC50 is > 10000 nM with Toxoplasma gondii [1], 42200 nM against Dihydrofolate reductase [2], 26600 nM against Dihydrofolate reductase [3] and 5700 nM in assay [4].

As to `COc1cc(NCc2ccc3nc(N)nc(N)c3c2C)cc(OC)c1OC` [TRIMETREXATE], the 50% inhibitory concentration (IC50) in the assay with Toxoplasma gondii [5] was 20 nM.
